Tests used:
HIV-1 (X4 tropic virus) = test: microbe, parasite or virus in culture; format: cell-based; details: CXCR4 trophic virus, PBMC
HIV-1 (R5 tropic virus) = format: cell-based; details: CCR5 trophic virus, PBMC
[1] = tested on: Sheep Red Blood Cells (SRBCs); format: in vivo, Swiss albino mice; details: Cyclophosphamide 25 mg/kg p.o alone
Procedure: Swiss albino mice of either sex were divided into 5 groups with six animals per group based on the treatment they received.
On Day 0, all five groups were sensitized with Sheep Red Blood Cells (SRBCs) containing 1×10^8 cells in normal saline. […] On Day 7, blood samples were collected from each mouse in the five groups by retro orbital puncture for the determination of primary antibody titre. Subsequently on day 7, after the blood withdrawal, the mice were challenged with 0.1 ml of SRBCs into the foot pad. On Day 14, blood samples were collected from each mouse by retro orbital puncture for the determination of secondary antibody titre.

[2] = tested on: H1N1 virus, Sensitive strain (676); test: Plaque reduction assay in MDCK cells, H1N1 sensitive strain; format: cell-based; details: Influenza A virus, Tamiflu

`c1cc(CN2CCCNCCNCCCNCC2)ccc1CN1CCCNCCNCCCNCC1` [AMD3100] was tested, and the EC50 (HIV-1 (X4 tropic virus); Human immunodeficiency virus 1) was 2.05 nM and the “inhibitory activity (in words)” value (HIV-1 (R5 tropic virus)) was “only against CXCR4 trophic virus”.

With `Cc1cn([C@H]2C[C@H](N=[N+]=[N-])[C@@H](CO)O2)c(=O)[nH]c1=O` [AZT] the “inhibitory activity (in words)” value (HIV-1 (X4 tropic virus)) was “exhibited inhibitory activity” and the “inhibitory activity (in words)” value (HIV-1 (R5 tropic virus)) was “exhibited inhibitory activity”.

With `O=P1(N(CCCl)CCCl)NCCCO1` (stereo not drawn) [Cyclophosphamide] the “PRIMARY HA TITRE ON DAY 7” value [1] was 0.33 and the “SECONDARY HA TITRE ON DAY 14” value [1] was 6.67.

In the case of `Cc1ccc(-c2ccc3c(c2)C=C(C(=O)Nc2ccc(C[N+](C)(C)C4CCOCC4)cc2)CCC3)cc1.[Cl-]` [Tak-779], the “inhibitory activity (in words)” value (HIV-1 (X4 tropic virus)) is reported as “only against CCR5 trophic virus” and the EC50 (HIV-1 (R5 tropic virus)) is reported as 0.56 nM.

Work on `CCOC(=O)C1=C[C@@H](OC(CC)CC)[C@H](NC(C)=O)[C@@H](N)C1` [Tamiflu, Oseltamivir] yielded an EC50 [2] of 4.5 nM.

Source: patent US8835415B2, “Standardized composition, method of manufacture and use in the resolution of RNA virus infection” (priority 2009, dated 2014)
